The test deals with T1, HEK cells stably transfected with tetracycline inducible hNR1 and hNR2A (Homo sapiens, UniProt Q05586+Q12879).
T1 construct: expressed in transfected cells; host or cells: HEK cells, stably transfected, tetracycline/doxycycline inducible
Briefly: Assay 1: Cell-Based Assay, cytosolic calcium response to positive allosteric modulators (with 30 μM glycine and 300 nM L-glutamate, EC30). Conditions: for EC50: cytosolic calcium response, with 30 μM glycine and 300 nM L-glutamate (EC30), — = no plateau was reached; for Max %: responses scaled relative to 100 μM L-glutamate maximal response (100%) and 0 μM L-glutamate (0%). The procedure, abridged: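 Cells induced 24 h with 7.5 μg mL^−1 doxycycline plus 500 μM (+)-ketamine, loaded 60 min at 37 °C with calcium dye in Mg-free HBSS (1.8 mM Ca, probenecid, 10 μM (+)-ketamine, pH 7.15). Peak RFU over 5 min after compound addition, scaled to 100 μM L-glutamate (100%) and 0 μM (0%); four-parameter Hill fit for EC50, max % if no plateau.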

We go through 13 compounds from US9988400B2 (Genentech, Inc., priority 2013, dated 2018).

T1 sequence (Q12879 23-1464, other chains not shown): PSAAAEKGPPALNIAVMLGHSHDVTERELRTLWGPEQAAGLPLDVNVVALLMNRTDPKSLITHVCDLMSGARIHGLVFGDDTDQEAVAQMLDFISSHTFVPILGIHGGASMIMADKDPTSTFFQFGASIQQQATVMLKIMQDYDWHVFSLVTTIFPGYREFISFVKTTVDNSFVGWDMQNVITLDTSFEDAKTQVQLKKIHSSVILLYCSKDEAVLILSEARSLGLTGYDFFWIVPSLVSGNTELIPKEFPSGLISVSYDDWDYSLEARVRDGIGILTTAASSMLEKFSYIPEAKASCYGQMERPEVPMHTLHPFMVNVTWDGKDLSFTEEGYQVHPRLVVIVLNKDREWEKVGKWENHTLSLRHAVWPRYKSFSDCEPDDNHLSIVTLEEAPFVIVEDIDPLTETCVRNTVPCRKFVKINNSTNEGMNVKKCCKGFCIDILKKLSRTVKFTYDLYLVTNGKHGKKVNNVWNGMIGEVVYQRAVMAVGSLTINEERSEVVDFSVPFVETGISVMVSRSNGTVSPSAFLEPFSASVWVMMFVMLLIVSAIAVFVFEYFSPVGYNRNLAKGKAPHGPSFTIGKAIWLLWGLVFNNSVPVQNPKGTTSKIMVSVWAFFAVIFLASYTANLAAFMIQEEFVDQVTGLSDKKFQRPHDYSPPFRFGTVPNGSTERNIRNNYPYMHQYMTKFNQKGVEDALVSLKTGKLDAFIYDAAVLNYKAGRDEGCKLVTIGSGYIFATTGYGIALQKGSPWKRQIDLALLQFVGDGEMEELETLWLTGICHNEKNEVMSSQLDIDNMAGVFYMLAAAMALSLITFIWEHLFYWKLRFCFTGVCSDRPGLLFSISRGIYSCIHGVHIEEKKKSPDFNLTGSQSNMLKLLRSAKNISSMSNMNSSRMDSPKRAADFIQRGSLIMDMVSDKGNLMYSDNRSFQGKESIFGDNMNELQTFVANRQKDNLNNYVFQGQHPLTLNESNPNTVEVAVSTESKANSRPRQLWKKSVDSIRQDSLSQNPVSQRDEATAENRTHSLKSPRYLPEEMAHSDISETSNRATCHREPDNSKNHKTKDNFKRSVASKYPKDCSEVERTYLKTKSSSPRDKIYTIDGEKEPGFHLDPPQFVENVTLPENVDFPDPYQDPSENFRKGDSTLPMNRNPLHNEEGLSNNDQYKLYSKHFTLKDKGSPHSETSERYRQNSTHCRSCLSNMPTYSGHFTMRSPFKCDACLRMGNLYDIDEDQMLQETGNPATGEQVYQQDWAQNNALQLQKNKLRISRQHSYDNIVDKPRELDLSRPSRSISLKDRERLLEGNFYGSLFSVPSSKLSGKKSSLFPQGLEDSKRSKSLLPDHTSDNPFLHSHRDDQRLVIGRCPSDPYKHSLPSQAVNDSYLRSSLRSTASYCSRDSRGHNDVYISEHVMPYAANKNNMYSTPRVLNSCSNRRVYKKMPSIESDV

As for `Cc1sc2nc(Oc3cccc(C#N)c3F)cc(=O)n2c1C1CC1C` (centres unmarked) [compound 107, 2-fluoro-3-[2-methyl-3-(2-methylcyclopropyl)-5-oxo-thiazolo[3,2-a]pyrimidin-7-yl]oxy-benzonitrile], the EC50 (Table 3) worked out at 994 nM.

As for `CCN(Cc1cc(=O)n2c(CCC#N)c(C)sc2n1)c1ccc(F)cc1` [Example 13.7, 3-[7-[(N-ethyl-4-fluoro-anilino)methyl]-2-methyl-5-oxo-thiazolo[3,2-a]pyrimidin-3-yl]propanenitrile], for the setting “Table 2”, the EC50 was 547 nM and the Max % came out at 137%.

As for `CNC(=O)c1c(C)sc2nc(COc3ccc(F)cc3)cc(=O)n12` [Example 1.2, 7-(4-Fluorophenoxymethyl)-N,2-dimethyl-5-oxo-5H-[1,3]thiazolo[3,2-a]pyrimidine-3-carboxamide], under “Table 2”, the Max % is on record as 92%.

In the case of `CCN(Cc1cc(=O)n2cc(C)sc2n1)c1ccc(F)cc1` [Example 11.3, 7-[(N-ethyl-4-fluoro-anilino)methyl]-2-methyl-thiazolo[3,2-a]pyrimidin-5-one], under “Table 2”, the EC50 worked out at 3200 nM and the Max % is 132%.

On to `CCNC(=O)c1c(C(F)(F)F)sc2nc(Cn3nc(C)cc3C(F)(F)F)cc(=O)n12` [compound 46, N-ethyl-7-[[3-methyl-5-(trifluoromethyl)pyrazol-1-yl]methyl]-5-oxo-2-(trifluoromethyl)thiazolo[3,2-a]pyrimidine-3-carboxamide], for which the half-maximal effective concentration (EC50) (Table 3) is 7040 nM.

Turning to `Cc1sc2nc(COc3ccc(F)cc3)cc(=O)n2c1C(C)(C)O` [Example 2.4, 7-(4-Fluorophenoxymethyl)-3-(2-hydroxypropan-2-yl)-2-methyl-5H-[1,3]thiazolo[3,2-a]pyrimidin-5-one], for the setting “Table 2”, the half-maximal effective concentration (EC50) came to 3000 nM and the Max % is on record as 44.6%.

For `CCN(Cc1cc(=O)n2c(C(O)CCO)c(C)sc2n1)c1ccc(F)cc1` (centres unmarked) [Example 12.1, 3-(1,3-dihydroxypropyl)-7-[(N-ethyl-4-fluoro-anilino)methyl]-2-methyl-thiazolo[3,2-a]pyrimidin-5-one], where the note is “Table 2”, the EC50 stood at 723 nM and the Max % is 166%.

In the case of `C=C(C)c1c(C)sc2nc(CN(CC)c3ccc(F)cc3)cc(=O)n12` [Example 5.29, 7-[(N-ethyl-4-fluoro-anilino)methyl]-3-isopropenyl-2-methyl-thiazolo[3,2-a]pyrimidin-5-one], for the setting “Table 2”, the EC50 came out at 445 nM and the Max % worked out at 147%.

For the compound `CCNC(=O)c1c(C)sc2nc(Cc3cccc(Cl)c3F)c(F)c(=O)n12` [compound 8, 7-[(3-chloro-2-fluoro-phenyl)methyl]-N-ethyl-6-fluoro-2-methyl-5-oxo-thiazolo[3,2-a]pyrimidine-3-carboxamide], the 50% effective concentration (EC50) (Table 3) was 2550 nM.

Turning to `CCN(Cc1cc(=O)n2c(/C=C\C#N)c(C)sc2n1)c1ccc(F)cc1` [compound 260, (Z)-3-[7-[(N-ethyl-4-fluoro-anilino)methyl]-2-methyl-5-oxo-thiazolo[3,2-a]pyrimidin-3-yl]prop-2-enenitrile], the EC50 (Table 3) is 2450 nM.

On to `Cc1sc2nc(Cn3nc(C(F)(F)F)cc3Cl)cc(=O)n2c1C(O)C(F)(F)F` (centres unmarked) [compound 203, 7-[[5-chloro-3-(trifluoromethyl)pyrazol-1-yl]methyl]-2-methyl-3-(2,2,2-trifluoro-1-hydroxy-ethyl)thiazolo[3,2-a]pyrimidin-5-one], for which the EC50 (Table 3) was found to be 5850 nM.

For the compound `CNC(=O)c1c(C)sc2nc(Cc3cccc(C#N)c3F)cc(=O)n12` [Example 21.2, 7-(3-cyano-2-fluorobenzyl)-N,2-dimethyl-5-oxo-5H-thiazolo[3,2-a]pyrimidine-3-carboxamide], for the setting “Table 2”, the EC50 was determined as 21600 nM and the Max % is reported as 133%.

In the case of `CCN(Cc1cc(=O)n2c(-c3cccnc3)c(C)sc2n1)c1ccc(F)cc1` [Example 5.21, 7-[(N-ethyl-4-fluoro-anilino)methyl]-2-methyl-3-(3-pyridyl)thiazolo[3,2-a]pyrimidin-5-one], for the setting “Table 2”, the EC50 turned out to be 584 nM and the Max % is reported as 141%.

By EC50 is commonly meant the concentration at which the effect is half-maximal.
